Values belong to the molecule of their own block, whether it stands above or below them.
Assays:
[1] = Proportion of particles of 75 μm or more (Air Jet Sieve); format: physicochemical; conditions: excipient powder
Method: Five grams of trehalose was weighed onto a screen having a screen opening of 75 μm, and sifted with Air Jet Sieve (Model 200LS, mfd. by ALPINE) for 5 minutes, and the weight percentage of the weight of particles remaining on the screen based on the total weight of particles was calculated as the proportion of particles of 75 μm or more.

[2] = Average particle size (sieving, 50% cumulative weight); format: physicochemical; conditions: excipient powder
Method: Five grams of trehalose was sifted through screens having screen openings of 500 μm, 300 μm and 250 μm, respectively, and then sifted with Air Jet Sieve by using screens having screen openings of 150 μm, 75 μm, 45 μm, 38 μm and 32 μm, respectively. The oversize particle weight percentage [%] was calculated for each screen, and the average particle size is expressed as a particle size corresponding to a cumulative weight percentage of 50%.

Apparent specific volume = format: physicochemical; conditions: excipient powder
From the text: The whole of 10 g of trehalose powder was gently poured into a 100-ml measuring cylinder without making an impact (in this case, a cylinder having an outside diameter smaller than the inside diameter of the measuring cylinder was placed in the measuring cylinder, and it was slowly lifted after pouring the trehalose), and the apparent specific volume was expressed as a value obtained by dividing the read volume by the weight of the trehalose.

[3] = Angle of repose (Sugiwara's instrument); format: physicochemical; conditions: excipient powder
From the text: Measured by means of a Sugiwara's instrument for measuring angle of repose (Yakuzaigaku 27, p. 260, 1965).

[4] = Whiteness of powder (color analyzer); format: physicochemical; conditions: excipient powder
Method: (§1) For powder of trehalose or a pharmaceutical composition containing trehalose, values of L, a and b were measured with a color analyzer (TC-1800MKII, mfd. by Tokyo Denshoku Co., Ltd.), and the whiteness of the trehalose or pharmaceutical composition was calculated by the following equation: […]

[5] = Tablet hardness (Schleuniger hardness meter); format: physicochemical; conditions: for Tablet hardness at a compression pressure of 1000 kg/cm^2: phenacetin granules
[6] = Wet granulation of phenacetin mixture with HPC binder solution: granule size and yield
[7] = Dissolution test (13th revised Japanese Pharmacopoeia) of phenacetin granules; format: physicochemical
Method: The wet granules obtained in Example 6 were subjected to a dissolution test according to the dissolution test prescribed in the 13th revised Japanese Pharmacopoeia. The first liquid listed in the Japanese Pharmacopoeia was used as a test liquid, and the drug dissolution rate after 5 minutes was measured. The dissolution rate was calculated by taking the total amount of the drug contained in the granules as 100%. […] In the case of the trehaloses J and K, the dissolution rate after 5 minutes was as very high as 80%.
The granules prepared from each of lactose and Mannit P in Comparative Example 4 were subjected to a dissolution test according to the dissolution test prescribed in the 13th revised Japanese Pharmacopoeia. The first liquid listed in the Japanese Pharmacopoeia was used as a test liquid, and the drug dissolution rate after 5 minutes was measured. The drug dissolution rate was calculated by taking the total amount of the drug contained in the granules as 100%. […] In the case of lactose and Mannit P, the dissolution rate after 5 minutes was lower than in the case of trehaloses J and K.

[8] = Water content (Karl Fisher) of tablets before and after storage; format: physicochemical; conditions: tablets compressed at 500 kg/cm^2
Method: Determined as a value obtained by measuring about 0.1 g of trehalose and determining its water content by the Karl Fisher method.
One hundred grams of commercial “Trehaose” (available from Hayashibara Biochemical Laboratories, Inc.) was dissolved in water to a concentration of about 35 wt %, and the resulting solution was concentrated under reduced pressure with heating at 60° C. so as to have a concentration of about 75 wt %, and allowed to stand at room temperature to precipitate crystals, which were washed with 50 ml of water. Glucose was removed by carrying out the above purification procedure once or twice, to increase the trehalose purity. Trehalose A was obtained by carrying out the purification procedure twice to obtain crystals, drying the crystals, grinding the dried crystals with a bantam mill (number of revolutions 15,000 rpm, feed rate 5 kg/hr, and screen opening 2.0 mmφ), and then sifting the ground crystals through a […]. Trehalose B was obtained by carrying out the purification procedure once to obtain crystals, drying the crystals, grinding the dried crystals with a bantam mill (number of revolutions 10,000 rpm, feed rate 5 kg/hr, and screen opening 2.00 mmφ), and then sifting the ground crystals through a 350-μm screen. Trehalose C was obtained by carrying out the purification procedure once to obtain crystals, drying the crystals, grinding the dried crystals with a bantam mill (number of revolutions 8,000 rpm, feed rate 5 kg/hr, and screen opening 2.0 mmφ), and then sifting the ground crystals through a 350-μm screen. […] Each of trehaloses A to C was compressed into tablets at a compression pressure of 500 kg/cm^2, and the tablet hardness immediately after the compression and the tablet hardness after standing for 3 days in an atmosphere of 40° C. and 75% RH after the compression were compared.
“Trehaose” (available from Hayashibara Bioscience Laboratories Co., Ltd.) was purified once by the method described in Example 1 to obtain crystals, which were dried, ground with a bantam mill (number of revolutions 12,000 rpm, feed rate 5 kg/hr, and screen opening 2.0 mmφ) and then dried at 105° C. for 4 hours to obtain trehalose anhydrous crystals. These crystals were compressed into tablets at a compression pressure of 500 kg/cm^2, and the tablet hardnesses of the tablets were compared in the same manner as in Example 1.

[9] = Change in whiteness of excipient mixed with drug at 40° C. and 75% RH (reactivity); format: physicochemical; conditions: listed as A
Method: as §1
One gram of each of the trehaloses obtained in Example 1 and 1 g of isoniazid were mixed and then allowed to stand in an atmosphere of 40° C. and 75% RH, and the change in whiteness of the trehalose was observed. On the other hand, 1 g of each of the trehaloses obtained in Example 1 and 1 g of aminophyline were mixed and then allowed to stand in an atmosphere of 40° C. and 75% RH, and the change in whiteness of the trehalose was observed.
One gram of 100-mesh lactose (available from De Melkindustrie Veghel bv) or 1 g of Mannit S (available from Tohwa Kasei Co., Ltd.) and 1 g of aminophyline were mixed and then allowed to stand in an atmosphere of 40° C. and 75% RH, and the change in whiteness of the lactose or Mannit S was observed.
As a starting material. […]

[10] = Disintegration time according to Japanese Pharmacopoeia; format: physicochemical
Method: The disintegration time of each of six molded products was measured by the use of ion-exchanged water according to the disintegration time measuring method prescribed in the 13th revised Japanese Pharmacopoeia, and the average of measured values was calculated.

[11] = Consolidation of powder during storage; format: physicochemical; conditions: compared with trehaloses B and C
[12] = phenacetin granules, binding solution 180 g
[13] = phenacetin granules, binding solution 240 g
[14] = Example 10: as Example 9 but molded at 60 kg/cm^2, listed as A
[15] = ascorbic acid tablets (Example 12), compression pressure 500 kg/cm^2
[16] = ascorbic acid tablets (Example 12), compression pressure 800 kg/cm^2
[17] = phenacetin 50/excipient 30/corn starch 10/microcrystalline cellulose 10, binding solution 100 g
[18] = phenacetin granules, binding solution 120 g
[19] = phenacetin granules, binding solution 160 g

Structure (SMILES): OC[C@@H](O)[C@@H](O)[C@H](O)[C@H](O)CO [Mannit P, reference compound]
Proportion of particles of 75 μm or more [1]: 20% | Average particle size [2]: 47 μm | Apparent specific volume (Apparent specific volume): 2.1 cm^3/g | Angle of repose [3]: 45 ° | Whiteness [4]: 96% | Tablet hardness at a compression pressure of 1000 kg/cm^2 ([5]; binding solution 180 g): 3.9 kgf | Tablet hardness at a compression pressure of 1000 kg/cm^2 ([5]; binding solution 200 g): 3.0 kgf | Tablet hardness at a compression pressure of 1000 kg/cm^2 ([5]; binding solution 240 g): 3.1 kgf | Average particle size of granules [6, 12]: 106 μm | Average particle size of granules ([6]; phenacetin granules, binding solution 200 g): 144 μm | Average particle size of granules [6, 13]: 313 μm | Drug dissolution rate after 5 min. ([7]; binding solution 200, first liquid of Japanese Pharmacopoeia): 70%

Structure (SMILES): OC[C@H]1O[C@H](O[C@H]2O[C@H](CO)[C@@H](O)[C@H](O)[C@H]2O)[C@H](O)[C@@H](O)[C@@H]1O [Trehalose A, trehalose]
Proportion of particles of 75 μm or more ([1]; listed as A): 15% | Average particle size ([2]; listed as A): 35 μm | Apparent specific volume (Apparent specific volume; listed as A): 3.1 cm^3/g | Angle of repose ([3]; listed as A): 48 ° | Whiteness ([4]; listed as A): 98% | Water content ([8]; 0 day, listed as A): 9.7% | Water content ([8]; 3 days at 40° C. and 75% RH): 9.8% | Tablet hardness ([5]; Example 8: molded product of trehalose only, molded at 30 kg/cm^2, dried overnight at 40° C., listed as A): 7.5 kg | Tablet hardness [5, 14]: 10.2 kg | Tablet hardness [5, 15]: 4.0 kgf | Tablet hardness [5, 16]: 7.0 kgf | Tablet hardness ([5]; process of Example 9: 950 g excipient + 50 g phenylpropanolamine hydrochloride, molded at 30 kg/cm^2, listed as A): 7.0 kg | Tablet hardness ([5]; tablets compressed at 500 kg/cm^2, 0 day (immediately after compression), listed as A): 2.6 kgf | Tablet hardness ([5]; tablets compressed at 500 kg/cm^2, 3 days at 40° C. and 75% RH, listed as A): 2.5 kgf | Whiteness ([9]; 1 g excipient + 1 g aminophyline, 0 day): 100% | Whiteness ([9]; 1 g excipient + 1 g aminophyline, 40° C. and 75% RH, 1 month): 98% | Whiteness ([9]; 1 g excipient + 1 g isoniazid, 0 day): 98% | Whiteness ([9]; 1 g excipient + 1 g isoniazid, 40° C. and 75% RH, 1 month): 97% | Disintegration time according to Japanese Pharmacopoeia ([10]; Example 8: molded product of trehalose only, 30 kg/cm^2, listed as A): 15 s | Disintegration time according to Japanese Pharmacopoeia [10, 14]: 52 s | Disintegration time according to Japanese Pharmacopoeia [10, 15]: 17 s | Disintegration time according to Japanese Pharmacopoeia [10, 16]: 25 s | Disintegration time according to Japanese Pharmacopoeia ([10]; process of Example 9: 950 g excipient + 50 g phenylpropanolamine hydrochloride, 30 kg/cm^2, listed as A): 16 s | Consolidation during storage [11]: consolidated during storage

Structure (SMILES): OC[C@H]1O[C@H](O[C@H]2O[C@H](CO)[C@@H](O)[C@H](O)[C@H]2O)[C@H](O)[C@@H](O)[C@@H]1O [Trehalose J, trehalose]
Proportion of particles of 75 μm or more [1]: 40% | Average particle size [2]: 60 μm | Apparent specific volume (Apparent specific volume): 2.0 cm^3/g | Angle of repose [3]: 41 ° | Whiteness [4]: 96% | Tablet hardness at a compression pressure of 1000 kg/cm^2 ([5]; binding solution 100 g): 5.1 kgf | Tablet hardness at a compression pressure of 1000 kg/cm^2 ([5]; binding solution 120 g, listed as J): 4.7 kgf | Tablet hardness at a compression pressure of 1000 kg/cm^2 ([5]; binding solution 160 g): 3.0 kgf | Average particle size of granules [6, 17]: 110 μm | Average particle size of granules [6, 18]: 130 μm | Average particle size of granules ([6]; phenacetin granules, binding solution 120 g, listed as J): 130 μm | Average particle size of granules [6, 19]: 270 μm | Drug dissolution rate after 5 min. ([7]; binding solution 120, first liquid of Japanese Pharmacopoeia): 80%

The next lines start with the values.

Proportion of particles of 75 μm or more [1]: 15% | Average particle size [2]: 60 μm | Apparent specific volume (Apparent specific volume): 2.1 cm^3/g | Angle of repose [3]: 45 ° | Whiteness [4]: 95% | Tablet hardness at a compression pressure of 1000 kg/cm^2 ([5]; binding solution 180 g): 2.5 kgf | Tablet hardness at a compression pressure of 1000 kg/cm^2 ([5]; binding solution 220 g): 3.0 kgf | Tablet hardness at a compression pressure of 1000 kg/cm^2 ([5]; binding solution 240 g): 3.7 kgf | Average particle size of granules [6, 12]: 91 μm | Average particle size of granules ([6]; phenacetin granules, binding solution 220 g): 150 μm | Average particle size of granules [6, 13]: 220 μm | Drug dissolution rate after 5 min. ([7]; binding solution 240, first liquid of Japanese Pharmacopoeia): 60%
Structure (SMILES): OC[C@H]1O[C@@H](O[C@H]2[C@H](O)[C@@H](O)C(O)O[C@@H]2CO)[C@H](O)[C@@H](O)[C@H]1O (some centres unmarked) [200M lactose, lactose, reference compound]

Proportion of particles of 75 μm or more [1]: 21% | Average particle size [2]: 50 μm | Apparent specific volume (Apparent specific volume): 2.1 cm^3/g | Angle of repose [3]: 42 ° | Whiteness [4]: 97% | Tablet hardness at a compression pressure of 1000 kg/cm^2 ([5]; binding solution 100 g): 5.0 kgf | Tablet hardness at a compression pressure of 1000 kg/cm^2 ([5]; binding solution 120 g): 4.5 kgf | Tablet hardness at a compression pressure of 1000 kg/cm^2 ([5]; binding solution 160 g, listed as K): 2.9 kgf | Average particle size of granules [6, 17]: 120 μm | Average particle size of granules [6, 18]: 140 μm | Average particle size of granules [6, 19]: 180 μm | Average particle size of granules ([6]; phenacetin granules, binding solution 160 g, listed as K): 180 μm | Drug dissolution rate after 5 min. ([7]; binding solution 160, first liquid of Japanese Pharmacopoeia): 80%
Structure (SMILES): OC[C@H]1O[C@H](O[C@H]2O[C@H](CO)[C@@H](O)[C@H](O)[C@H]2O)[C@H](O)[C@@H](O)[C@@H]1O [Trehalose K, trehalose]

Source: patent publication US20020042393A1, “Excipient” (priority 1998, published 2002)
